Assay results published in patent publication US11926626B2, “Heterocyclic GLP-1 agonists” (Gasherbrum Bio, Inc., priority 2020, dated 2024).

molecular target: GLP-1 Receptor (Homo sapiens, UniProt P43220); assay: GLP-1R agonist cAMP stimulation assay (HEK293/GLP1R/CRE-Luc cells, HTRF cAMP); format: cell-based; conditions: HEK293/CRE-Luc cells stably expressing GLP-1 Receptor; 30 min, 37° C.
Sequence (P43220 24-463): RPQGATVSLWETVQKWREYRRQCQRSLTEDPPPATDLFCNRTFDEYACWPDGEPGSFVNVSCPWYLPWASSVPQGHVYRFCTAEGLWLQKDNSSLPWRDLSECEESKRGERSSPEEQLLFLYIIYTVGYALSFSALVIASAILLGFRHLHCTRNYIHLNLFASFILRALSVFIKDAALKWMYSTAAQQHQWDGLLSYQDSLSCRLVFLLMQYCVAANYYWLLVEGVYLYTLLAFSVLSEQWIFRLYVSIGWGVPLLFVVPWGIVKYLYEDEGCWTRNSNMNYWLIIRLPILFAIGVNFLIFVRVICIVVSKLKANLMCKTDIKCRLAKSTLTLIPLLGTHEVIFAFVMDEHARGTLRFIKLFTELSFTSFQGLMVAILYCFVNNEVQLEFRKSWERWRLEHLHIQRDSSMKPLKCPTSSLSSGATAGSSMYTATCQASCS

SMILES	GLP1R cAMP Stimulation DR: pEC50
CCOCCn1c(CN2CCC(Oc3ccnc(Cc4ccc(Cl)cc4)n3)CC2)nc2ccc(C(=O)O)nc21 [Compound 194, 2-((4-((2-(4-chlorobenzyl)pyrimidin-4-yl)oxy)piperidin-1-yl)methyl)-3-(2-ethoxyethyl)-3H-imidazo[4,5-b]pyridine-5-carboxylic acid]	8.5
COC(C)Cn1c(CN2CCC(Oc3ccnc(Cc4ccc(Cl)cc4)n3)CC2)nc2ccc(C(=O)O)nc21 (stereo not shown) [Compound 195, 2-((4-((2-(4-chlorobenzyl)pyrimidin-4-yl)oxy)piperidin-1-yl)methyl)-3-(2-methoxypropyl)-3H-imidazo[4,5-b]pyridine-5-carboxylic acid]	9.2
O=C(O)c1ccc2nc(CN3CCC(Oc4ccnc(Cc5ccc(Cl)cc5)n4)CC3)n(C[C@H]3CCOC3)c2n1 [Compound 196a, (R)-2-((4-((2-(4-chlorobenzyl)pyrimidin-4-yl)oxy)piperidin-1-yl)methyl)-3-((tetrahydrofuran-3-yl)methyl)-3H-imidazo[4,5-b]pyridine-5-carboxylic acid]	8.9
O=C(O)c1ccc2nc(CN3CCC(Oc4nc(Cc5ccc(Cl)cc5)ncc4F)CC3)n(C[C@H]3CCOC3)c2n1 [Compound 197a, (R)-2-((4-((2-(4-chlorobenzyl)-5-fluoropyrimidin-4-yl)oxy)piperidin-1-yl)methyl)-3-((tetrahydrofuran-3-yl)methyl)-3H-imidazo[4,5-b]pyridine-5-carboxylic acid]	8.6
O=c1[nH]c(-c2ccc3nc(CN4CCC(Oc5ccnc(Cc6ccc(Cl)cc6)n5)CC4)n(C[C@@H]4CCO4)c3n2)no1 [Compound 198a, (S)-3-(2-((4-((2-(4-chlorobenzyl)pyrimidin-4-yl)oxy)piperidin-1-yl)methyl)-3-(oxetan-2-ylmethyl)-3H-imidazo[4,5-b]pyridin-5-yl)-1,2,4-oxadiazol-5(4H)-one]	9.2

The next lines start with the values.

GLP1R cAMP Stimulation DR: pEC50	SMILES
7.1	NC(=O)c1ccc2nc(CN3CCC(Oc4ccnc(Cc5ccc(Cl)cc5)n4)CC3)n(C[C@@H]3CCO3)c2n1 [Compound 200a, (S)-2-((4-((2-(4-chlorobenzyl)pyrimidin-4-yl)oxy)piperidin-1-yl)methyl)-3-(oxetan-2-ylmethyl)-3H-imidazo[4,5-b]pyridine-5-carboxamide]
6.4	O=C(O)c1ccc2nc(CN3CC4CC(Oc5ccnc(Cc6ccc(Cl)cc6)n5)CC4C3)n(C[C@@H]3CCO3)c2n1 (stereo partly drawn) [Compound 201a, 2-{[5-({2-[(4-chlorophenyl)methyl]pyrimidin-4-yl}oxy)-octahydrocyclopenta[c]pyrrol-2-yl]methyl}-3-{[(2S)-oxetan-2-yl]methyl}-3H-imidazo[4,5-b]pyridine-5-carboxylic acid]
